Numbers after ± are expanded uncertainties.
CCCCCCCC[n+]1ccn(C)c1.F[P-](F)(F)(F)(F)F [1-octyl-3-methylimidazolium hexafluorophosphate]
Conditions | surface tension liquid-gas [mN/m]
283.91 K | 34.75 ± 0.3
283.92 K | 34.62 ± 0.3
287.88 K | 34.48 ± 0.29
293.41 K | 34.14 ± 0.29
293.42 K | 34.36 ± 0.29
298.13 K | 33.95 ± 0.29
302.95 K | 33.56 ± 0.29
303 K | 33.48 ± 0.29
308.1 K | 33.27 ± 0.29
308.14 K | 33.32 ± 0.29
313.47 K | 32.98 ± 0.28
313.51 K | 33.16 ± 0.28
318.02 K | 32.9 ± 0.28
318.04 K | 32.8 ± 0.28
322.73 K | 32.52 ± 0.28
322.79 K | 32.46 ± 0.28
327.97 K | 32.12 ± 0.28
327.98 K | 32.25 ± 0.28
332.98 K | 32.02 ± 0.28
333.05 K | 31.93 ± 0.28
337.93 K | 31.81 ± 0.27
337.95 K | 31.68 ± 0.27
342.84 K | 31.46 ± 0.27
343 K | 31.53 ± 0.27
348.12 K | 31.26 ± 0.27
348.18 K | 31.15 ± 0.27
353.56 K | 30.94 ± 0.27
353.62 K | 30.83 ± 0.27

CCCCn1cc[n+](C)c1.F[P-](F)(F)(F)(F)F [1-butyl-3-methylimidazolium hexafluorophosphate]
Conditions | surface tension liquid-gas [mN/m]
287.6 K | 44.41 ± 0.37
288.14 K | 44.47 ± 0.37
292.88 K | 44.11 ± 0.37
292.99 K | 44.28 ± 0.37
297.86 K | 44.03 ± 0.37
298.34 K | 43.82 ± 0.37
303.33 K | 43.64 ± 0.36
303.37 K | 43.51 ± 0.36
307.96 K | 43.24 ± 0.36
308.21 K | 43.46 ± 0.36
312.44 K | 43.13 ± 0.36
312.88 K | 42.9 ± 0.36
317.86 K | 42.58 ± 0.36
318.23 K | 42.75 ± 0.36
322.81 K | 42.21 ± 0.35
322.98 K | 42.45 ± 0.36
327.89 K | 42.14 ± 0.35
327.91 K | 41.94 ± 0.35
332.84 K | 41.86 ± 0.35
333.31 K | 41.63 ± 0.35
337.59 K | 41.57 ± 0.35
337.97 K | 41.37 ± 0.35
342.86 K | 41.05 ± 0.34
343.06 K | 41.34 ± 0.35
348.16 K | 40.95 ± 0.34
348.34 K | 40.8 ± 0.34
352.78 K | 40.47 ± 0.34
352.99 K | 40.75 ± 0.34

CCCCCCn1cc[n+](C)c1.F[P-](F)(F)(F)(F)F [1-hexyl-3-methylimidazolium hexafluorophosphate]
Conditions | surface tension liquid-gas [mN/m]
284.3 K | 39.12 ± 0.33
284.36 K | 39.1 ± 0.33
288.16 K | 38.86 ± 0.33
288.25 K | 38.81 ± 0.33
293.48 K | 38.6 ± 0.33
293.56 K | 38.7 ± 0.33
298.97 K | 38.25 ± 0.32
299.02 K | 38.21 ± 0.32
303.58 K | 37.99 ± 0.32
303.67 K | 37.89 ± 0.32
308.56 K | 37.61 ± 0.32
308.58 K | 37.78 ± 0.32
313.45 K | 37.26 ± 0.32
313.53 K | 37.3 ± 0.32
318.45 K | 36.88 ± 0.31
318.5 K | 36.94 ± 0.31
323.12 K | 36.67 ± 0.31
323.16 K | 36.78 ± 0.31
327.89 K | 36.28 ± 0.31
327.92 K | 36.29 ± 0.31
333.78 K | 36.05 ± 0.31
333.82 K | 35.99 ± 0.31
337.92 K | 35.68 ± 0.3
337.94 K | 35.74 ± 0.3
343.05 K | 35.48 ± 0.3
343.09 K | 35.29 ± 0.3
347.67 K | 35.21 ± 0.3
347.75 K | 35.09 ± 0.3
353.68 K | 34.7 ± 0.3
353.76 K | 34.87 ± 0.3

CCCn1cc[n+](C)c1.F[P-](F)(F)(F)(F)F [1-methyl-3-propylimidazolium hexafluorophosphate]
Conditions | surface tension liquid-gas [mN/m]
318.33 K | 46.41 ± 0.39
318.39 K | 46.75 ± 0.39
323.12 K | 46.09 ± 0.38
323.13 K | 46.33 ± 0.39
328.13 K | 45.76 ± 0.38
328.14 K | 45.93 ± 0.38
332.59 K | 45.52 ± 0.38
332.63 K | 45.2 ± 0.38
333.28 K | 45.82 ± 0.38
338.14 K | 45.65 ± 0.38
338.21 K | 45.14 ± 0.38
343.25 K | 44.83 ± 0.37
343.26 K | 44.86 ± 0.37
348.02 K | 44.66 ± 0.37
348.08 K | 44.54 ± 0.37
352 K | 44.38 ± 0.37
352.08 K | 44.31 ± 0.37

From the NIST ThermoML archive (doi:10.1021/je800895q)
